Patent US12661356B2, “L718 and/or L792 mutant treatment-resistant EGFR inhibitor” (TAIHO PHARMACEUTICAL CO., LTD., priority 2018, dated 2026)

Key:
Assay in all cases: Intracellular EGFR phosphorylation, mutant EGFR forced expression system using HEK293 cells
Type in all cases: cell-based
Details in all cases: 6 hours incubation, p-EGFR (Tyr1068)/EGFR
[1] = target: T1, human EGFR L858R+T790M+L792H (Homo sapiens, UniProt P00533, L792H/L858R/T790M)
T1 construct: expressed in transfected cells; host or cells: Jump-In Grip HEK293 cells (Thermo Fisher Scientific)

[2] = target: T2, human EGFR Ex19del (Del E746-A750) (Homo sapiens, UniProt P00533, DEL746-750)
T2 construct: expressed in transfected cells; host or cells: Jump-In Grip HEK293 cells (Thermo Fisher Scientific)
T2 sequence (P00533 with tags, fused parts or gaps DEL746-750): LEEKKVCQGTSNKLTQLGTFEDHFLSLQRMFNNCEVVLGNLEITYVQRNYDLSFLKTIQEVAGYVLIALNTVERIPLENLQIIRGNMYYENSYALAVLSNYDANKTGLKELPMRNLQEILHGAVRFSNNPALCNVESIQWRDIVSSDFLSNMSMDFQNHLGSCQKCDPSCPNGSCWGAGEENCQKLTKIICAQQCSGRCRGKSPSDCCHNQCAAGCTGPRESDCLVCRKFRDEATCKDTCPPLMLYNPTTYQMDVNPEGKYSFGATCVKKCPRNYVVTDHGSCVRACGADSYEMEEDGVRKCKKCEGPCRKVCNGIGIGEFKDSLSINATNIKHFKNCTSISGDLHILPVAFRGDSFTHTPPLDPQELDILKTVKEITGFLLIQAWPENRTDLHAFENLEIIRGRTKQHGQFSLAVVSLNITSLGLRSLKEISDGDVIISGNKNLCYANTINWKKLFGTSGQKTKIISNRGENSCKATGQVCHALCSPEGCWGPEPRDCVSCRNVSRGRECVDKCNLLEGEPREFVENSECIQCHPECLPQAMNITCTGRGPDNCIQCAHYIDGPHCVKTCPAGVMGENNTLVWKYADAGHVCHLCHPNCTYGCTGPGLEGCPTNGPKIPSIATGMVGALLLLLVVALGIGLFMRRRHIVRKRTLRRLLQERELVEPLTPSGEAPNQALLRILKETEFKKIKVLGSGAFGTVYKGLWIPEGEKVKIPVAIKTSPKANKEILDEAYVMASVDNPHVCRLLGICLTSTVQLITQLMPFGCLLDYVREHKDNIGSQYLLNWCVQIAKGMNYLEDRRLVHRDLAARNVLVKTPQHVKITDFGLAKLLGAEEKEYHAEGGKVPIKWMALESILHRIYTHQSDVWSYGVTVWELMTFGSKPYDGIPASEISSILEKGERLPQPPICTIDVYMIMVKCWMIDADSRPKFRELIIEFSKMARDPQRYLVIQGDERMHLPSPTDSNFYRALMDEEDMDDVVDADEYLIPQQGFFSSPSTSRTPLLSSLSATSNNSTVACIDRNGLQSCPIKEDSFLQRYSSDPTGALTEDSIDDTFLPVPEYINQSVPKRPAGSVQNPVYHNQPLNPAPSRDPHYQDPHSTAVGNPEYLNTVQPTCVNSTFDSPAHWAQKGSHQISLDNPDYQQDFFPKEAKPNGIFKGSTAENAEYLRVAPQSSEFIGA

[3] = target: T3, human EGFR L858R+T790M+L792Y (Homo sapiens, UniProt P00533, L792Y/L858R/T790M)
T3 construct: expressed in transfected cells; host or cells: Jump-In Grip HEK293 cells (Thermo Fisher Scientific)

[4] = target: T4, human EGFR Ex19del+T790M+L718Q (Homo sapiens, UniProt P00533, DEL746-750/L718Q/T790M)
T4 construct: expressed in transfected cells; host or cells: Jump-In Grip HEK293 cells (Thermo Fisher Scientific)
T4 sequence (P00533 with tags, fused parts or gaps L718Q/DEL746-750/T790M): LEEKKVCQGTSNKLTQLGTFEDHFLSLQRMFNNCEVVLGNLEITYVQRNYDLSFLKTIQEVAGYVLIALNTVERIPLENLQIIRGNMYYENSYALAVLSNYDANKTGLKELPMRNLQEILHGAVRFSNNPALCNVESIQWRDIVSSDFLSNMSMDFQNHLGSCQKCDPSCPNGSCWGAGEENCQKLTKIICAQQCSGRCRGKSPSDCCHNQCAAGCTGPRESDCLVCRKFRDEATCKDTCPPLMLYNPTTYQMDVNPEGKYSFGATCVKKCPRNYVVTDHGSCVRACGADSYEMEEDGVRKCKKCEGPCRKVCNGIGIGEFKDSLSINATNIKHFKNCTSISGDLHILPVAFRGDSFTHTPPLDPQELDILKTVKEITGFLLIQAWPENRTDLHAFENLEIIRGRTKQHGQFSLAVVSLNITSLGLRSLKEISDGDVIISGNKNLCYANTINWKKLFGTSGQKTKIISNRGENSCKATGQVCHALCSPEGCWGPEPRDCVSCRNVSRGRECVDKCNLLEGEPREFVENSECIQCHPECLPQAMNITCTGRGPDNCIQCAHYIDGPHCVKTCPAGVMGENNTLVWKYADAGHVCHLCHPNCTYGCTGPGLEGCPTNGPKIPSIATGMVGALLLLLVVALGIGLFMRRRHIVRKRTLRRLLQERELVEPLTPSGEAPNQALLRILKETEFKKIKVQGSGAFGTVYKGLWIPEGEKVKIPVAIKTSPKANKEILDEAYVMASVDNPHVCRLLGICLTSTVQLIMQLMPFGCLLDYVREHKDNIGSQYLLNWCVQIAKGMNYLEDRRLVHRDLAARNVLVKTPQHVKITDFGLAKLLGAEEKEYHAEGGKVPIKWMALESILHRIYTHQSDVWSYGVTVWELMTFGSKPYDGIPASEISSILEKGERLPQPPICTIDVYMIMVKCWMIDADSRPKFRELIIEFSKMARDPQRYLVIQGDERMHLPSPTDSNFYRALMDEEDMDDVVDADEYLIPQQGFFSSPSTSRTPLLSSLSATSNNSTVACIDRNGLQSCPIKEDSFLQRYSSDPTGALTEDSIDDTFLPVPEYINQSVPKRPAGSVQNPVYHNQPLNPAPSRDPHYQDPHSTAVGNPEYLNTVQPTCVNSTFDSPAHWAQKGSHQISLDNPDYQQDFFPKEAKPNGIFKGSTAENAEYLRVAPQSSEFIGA

[5] = target: T5, human EGFR L858R+T790M+L792F (Homo sapiens, UniProt P00533, L792F/L858R/T790M)
T5 construct: expressed in transfected cells; host or cells: Jump-In Grip HEK293 cells (Thermo Fisher Scientific)

[6] = target: T6, human EGFR Ex19del+T790M+L792F (Homo sapiens, UniProt P00533, DEL746-750/L792F/T790M)
T6 construct: expressed in transfected cells; host or cells: Jump-In Grip HEK293 cells (Thermo Fisher Scientific)

[7] = target: T7, human EGFR Ex19del+T790M+L792Y (Homo sapiens, UniProt P00533, DEL746-750/L792Y/T790M)
T7 construct: expressed in transfected cells; host or cells: Jump-In Grip HEK293 cells (Thermo Fisher Scientific)

[8] = target: T8, human EGFR Ex19del+T790M (Homo sapiens, UniProt P00533, DEL746-750/T790M)
T8 construct: expressed in transfected cells; host or cells: Jump-In Grip HEK293 cells (Thermo Fisher Scientific)

[9] = target: T9, human EGFR L858R+T790M (Homo sapiens, UniProt P00533, L858R/T790M)
T9 construct: expressed in transfected cells; host or cells: Jump-In Grip HEK293 cells (Thermo Fisher Scientific)
T9 sequence (P00533 25-1210 T790M/L858R): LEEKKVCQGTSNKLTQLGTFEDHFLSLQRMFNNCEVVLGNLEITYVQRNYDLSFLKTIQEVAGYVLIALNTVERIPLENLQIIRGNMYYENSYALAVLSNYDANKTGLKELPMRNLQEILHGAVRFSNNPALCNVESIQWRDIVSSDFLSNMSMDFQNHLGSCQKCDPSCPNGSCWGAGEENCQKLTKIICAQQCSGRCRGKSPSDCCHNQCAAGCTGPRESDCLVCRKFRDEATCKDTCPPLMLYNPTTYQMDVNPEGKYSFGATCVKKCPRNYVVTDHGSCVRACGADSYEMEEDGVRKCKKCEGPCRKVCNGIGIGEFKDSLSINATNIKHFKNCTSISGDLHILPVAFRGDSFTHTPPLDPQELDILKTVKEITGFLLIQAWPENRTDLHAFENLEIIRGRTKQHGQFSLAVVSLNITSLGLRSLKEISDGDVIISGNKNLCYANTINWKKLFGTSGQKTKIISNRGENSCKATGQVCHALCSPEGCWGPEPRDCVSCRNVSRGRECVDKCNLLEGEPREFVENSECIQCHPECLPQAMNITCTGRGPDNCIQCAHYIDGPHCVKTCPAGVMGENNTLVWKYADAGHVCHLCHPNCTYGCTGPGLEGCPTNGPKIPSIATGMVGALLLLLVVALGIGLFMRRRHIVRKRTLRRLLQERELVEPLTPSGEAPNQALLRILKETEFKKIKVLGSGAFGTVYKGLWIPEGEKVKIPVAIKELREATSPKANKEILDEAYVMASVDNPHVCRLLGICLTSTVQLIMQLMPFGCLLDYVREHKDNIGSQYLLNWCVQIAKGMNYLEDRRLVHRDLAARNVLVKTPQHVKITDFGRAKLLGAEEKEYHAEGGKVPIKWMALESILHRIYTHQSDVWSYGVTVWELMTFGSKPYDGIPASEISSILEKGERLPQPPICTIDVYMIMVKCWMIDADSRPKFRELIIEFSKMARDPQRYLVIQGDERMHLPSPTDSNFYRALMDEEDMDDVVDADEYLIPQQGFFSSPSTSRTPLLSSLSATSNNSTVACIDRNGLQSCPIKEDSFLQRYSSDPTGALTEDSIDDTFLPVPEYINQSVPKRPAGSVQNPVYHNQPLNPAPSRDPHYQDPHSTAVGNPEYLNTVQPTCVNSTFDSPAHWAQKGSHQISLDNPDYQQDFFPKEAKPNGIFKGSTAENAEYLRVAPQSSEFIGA

[10] = target: T10, human EGFR L858R (Homo sapiens, UniProt P00533, L858R)
T10 construct: expressed in transfected cells; host or cells: Jump-In Grip HEK293 cells (Thermo Fisher Scientific)

[11] = target: T11, human EGFR L858R+T790M+L718Q (Homo sapiens, UniProt P00533, L718Q/L858R/T790M)
T11 construct: expressed in transfected cells; host or cells: Jump-In Grip HEK293 cells (Thermo Fisher Scientific)

[12] = target: T12, human EGFR Ex19del+T790M+L792H (Homo sapiens, UniProt P00533, DEL746-750/L792H/T790M)
T12 construct: expressed in transfected cells; host or cells: Jump-In Grip HEK293 cells (Thermo Fisher Scientific)
T12 sequence (P00533 with tags, fused parts or gaps DEL746-750/T790M/L792H): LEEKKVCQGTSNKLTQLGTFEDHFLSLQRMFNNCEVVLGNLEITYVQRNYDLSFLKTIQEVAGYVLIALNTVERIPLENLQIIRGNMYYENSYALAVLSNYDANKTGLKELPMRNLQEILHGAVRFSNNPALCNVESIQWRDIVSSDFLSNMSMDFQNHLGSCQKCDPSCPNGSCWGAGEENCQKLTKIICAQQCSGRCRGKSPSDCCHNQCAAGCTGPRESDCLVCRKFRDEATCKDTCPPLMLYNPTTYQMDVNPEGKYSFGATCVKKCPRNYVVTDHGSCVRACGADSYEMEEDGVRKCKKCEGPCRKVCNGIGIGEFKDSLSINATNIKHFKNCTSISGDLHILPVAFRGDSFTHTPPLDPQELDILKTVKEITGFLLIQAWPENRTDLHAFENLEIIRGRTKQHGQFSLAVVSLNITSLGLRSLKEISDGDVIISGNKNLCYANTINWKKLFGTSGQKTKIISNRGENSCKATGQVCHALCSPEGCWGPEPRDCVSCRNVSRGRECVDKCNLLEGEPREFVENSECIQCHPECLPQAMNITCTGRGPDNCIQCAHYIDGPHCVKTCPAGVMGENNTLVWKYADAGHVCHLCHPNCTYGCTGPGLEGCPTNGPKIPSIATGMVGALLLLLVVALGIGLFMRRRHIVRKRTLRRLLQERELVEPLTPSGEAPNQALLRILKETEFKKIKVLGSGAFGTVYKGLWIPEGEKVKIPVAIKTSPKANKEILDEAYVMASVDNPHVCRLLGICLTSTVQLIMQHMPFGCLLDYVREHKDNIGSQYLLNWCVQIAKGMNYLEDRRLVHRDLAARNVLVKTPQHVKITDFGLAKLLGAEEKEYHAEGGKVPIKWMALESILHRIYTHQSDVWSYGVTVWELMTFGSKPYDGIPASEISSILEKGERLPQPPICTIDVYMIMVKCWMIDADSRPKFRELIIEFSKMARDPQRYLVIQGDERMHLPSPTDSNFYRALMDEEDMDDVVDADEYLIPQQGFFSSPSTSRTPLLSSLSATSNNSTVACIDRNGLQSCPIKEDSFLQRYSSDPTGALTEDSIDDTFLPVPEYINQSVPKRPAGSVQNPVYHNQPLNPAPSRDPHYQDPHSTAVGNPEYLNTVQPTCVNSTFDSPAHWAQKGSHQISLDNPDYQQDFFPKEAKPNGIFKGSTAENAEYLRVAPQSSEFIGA

IC50 [1]: 15.3 ± 5 µM
IC50 [2]: 11.2 ± 6.4 µM
IC50 [3]: 11.3 ± 5.8 µM
IC50 [4]: 82.5 ± 9 µM
IC50 [5]: 9.07 ± 4.74 µM
IC50 [6]: 6.25 ± 1.83 µM
IC50 [7]: 6.54 ± 1.49 µM
IC50 [8]: 16.9 ± 5.9 µM
IC50 [9]: 16 ± 2.6 µM
IC50 [10]: 13.8 ± 3.8 µM
IC50 [11]: 104 ± 40 µM
IC50 [12]: 11.1 ± 5.6 µM
Compound: C=CC(=O)N[C@H]1C=C(C)c2c(-c3cnc4ccccc4c3)c3c(N)ncnc3n2C1 [Compound A, (S)—N-(4-amino-6-methyl-5-(quinolin-3-yl)-8,9-dihydropyrimido[5,4-b]indolizin-8-yl) acrylamide]
